Measurements reported in article doi:10.1101/112086v2 (biorxiv, 2017).
Changes are numbered by the printed parent chain.

What was measured:
Mps1 kinase domain [1] = target: T1, Mps1 kinase domain (Homo sapiens, UniProt P33981, C604W); assay: microscale thermophoresis, DY-547P1 labelled protein; format: binding
T1 sequence (P33981 519-808 C604W): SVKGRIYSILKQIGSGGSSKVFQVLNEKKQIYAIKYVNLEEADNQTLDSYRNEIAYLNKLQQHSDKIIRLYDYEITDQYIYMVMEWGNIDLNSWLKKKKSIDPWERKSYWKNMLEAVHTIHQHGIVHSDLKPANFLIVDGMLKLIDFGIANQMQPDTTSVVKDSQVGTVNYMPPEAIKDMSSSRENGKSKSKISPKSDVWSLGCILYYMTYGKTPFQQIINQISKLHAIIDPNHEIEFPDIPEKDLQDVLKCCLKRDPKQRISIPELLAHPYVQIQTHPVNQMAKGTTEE

Mps1 kinase domain [2] = target: T2, Mps1 kinase domain (Homo sapiens, UniProt P33981); assay: as above; format: binding
T2 sequence (P33981 519-808): T1 sequence (P33981 519-808 C604W) with W86C

GST-Mps1 full length [3] = target: T3, GST-Mps1 full length (Homo sapiens, UniProt P33981, C604Y); assay: biochemical
T3 sequence (P33981 1-857 C604Y): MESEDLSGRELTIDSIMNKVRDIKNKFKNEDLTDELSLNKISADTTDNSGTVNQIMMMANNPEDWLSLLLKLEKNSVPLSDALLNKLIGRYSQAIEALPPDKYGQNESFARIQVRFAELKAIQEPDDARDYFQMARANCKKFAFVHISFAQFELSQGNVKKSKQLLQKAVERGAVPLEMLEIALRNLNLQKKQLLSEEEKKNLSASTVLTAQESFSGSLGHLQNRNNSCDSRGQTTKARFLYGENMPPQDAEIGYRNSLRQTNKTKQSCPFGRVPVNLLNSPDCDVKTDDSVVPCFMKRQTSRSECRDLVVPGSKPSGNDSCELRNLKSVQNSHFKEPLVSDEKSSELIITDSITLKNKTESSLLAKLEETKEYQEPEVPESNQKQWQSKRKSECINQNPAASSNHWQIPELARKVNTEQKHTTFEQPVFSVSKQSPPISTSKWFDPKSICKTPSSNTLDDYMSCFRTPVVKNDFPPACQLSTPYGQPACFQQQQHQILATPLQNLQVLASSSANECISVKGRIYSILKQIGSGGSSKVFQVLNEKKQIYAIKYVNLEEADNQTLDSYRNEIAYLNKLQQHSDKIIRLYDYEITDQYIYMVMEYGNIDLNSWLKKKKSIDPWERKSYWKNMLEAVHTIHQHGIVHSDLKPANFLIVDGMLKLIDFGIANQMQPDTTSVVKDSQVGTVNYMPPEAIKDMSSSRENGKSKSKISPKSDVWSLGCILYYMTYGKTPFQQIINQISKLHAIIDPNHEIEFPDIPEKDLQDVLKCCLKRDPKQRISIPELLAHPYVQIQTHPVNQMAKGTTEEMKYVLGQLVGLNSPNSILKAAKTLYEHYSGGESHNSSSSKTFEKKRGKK

GST-Mps1 full length [4] = target: T4, GST-Mps1 full length (Homo sapiens, UniProt P33981); assay: biochemical
T4 sequence (P33981 1-857): T3 sequence (P33981 1-857 C604Y) with Y604C

Mps1 kinase domain [5] = target: T5, Mps1 kinase domain (Homo sapiens, UniProt P33981, C604Y); assay: microscale thermophoresis, DY-547P1 labelled protein; format: binding
T5 sequence (P33981 519-808 C604Y): T1 sequence (P33981 519-808 C604W) with W86Y

GST-Mps1 full length [6] = target: T6, GST-Mps1 full length (Homo sapiens, UniProt P33981, C604W); assay: biochemical
T6 sequence (P33981 1-857 C604W): T3 sequence (P33981 1-857 C604Y) with Y604W

## CCc1cccc(CC)c1NC(=O)c1nn(C)c2c1CCc1cnc(Nc3ccc(N4CCN(C)CC4)cc3OC)nc1-2 [Cpd-5, N-(2,6-diethylphenyl)-8-((2-methoxy-4-(4-methylpiperazin-1-yl)phenyl)amino)-1-methyl-4,5-dihydro-1H-pyrazolo[4,3-h]quinazoline-3-carboxamide]
Mps1 kinase domain [1]
  Kd: 349 ± 81 nM
Mps1 kinase domain [2]
  Kd: 1.6 ± 0.2 nM
GST-Mps1 full length [3]
  IC50: 170 ± 30 nM
GST-Mps1 full length [4]
  IC50: 9.2 ± 1.6 nM
Mps1 kinase domain [5]
  Kd: 471 ± 50 nM
GST-Mps1 full length [6]
  IC50: 19 ± 1 nM
